Series [1] can be described thus: XRPD of polymorphs after air-drying or vacuum-drying (solid form stability). The format is physicochemical. To be noted: for Crystallinity / XRPD pattern after air-drying: air-dried (overnight); for Crystallinity / XRPD pattern after vacuum-drying: vacuum dried overnight (80° C.). Here is the method: Large scale studies were performed with HM30181 mesylate Type A starting material on a 200 mg scale as described below. Solids were isolated by vacuum filtration. The wet cakes from filtration from DMA, DMF, and NMP slurries were washed with 1 mL to 2 mL methanol to remove solvents. […]
XRPD was performed using a Panalytical X'Pert3™ Powder XRPD and on a Si zero-background holder. The 2θ position was calibrated against a Panalytical™ 640 Si powder standard. Details of XRPD used in the experiments are listed below in Table 20.

The nature of series [2]: 1H-NMR check for disproportionation or degradation. The format is physicochemical. To be noted: large scale polymorph samples, DMSO-d6. The source says: At large scale, a slurry of HM30181 mesylate Type A starting material in methanol at ambient conditions generated a mixture of HM30181 mesylate Type B and HM30181 mesylate Type A after 9 days (see FIG. 32). After 14 days, the slurry in methanol generated a HM30181 mesylate Type N polymorph. […] A scaled-up slurry of HM30181 mesylate Type A starting material in DMA yielded HM30181 mesylate Type E after 6 days (see FIG. 35). […] A scaled-up slurry of HM30181 mesylate Type A starting material in DMF at 50° C. yielded HM30181 mesylate Type F rather than the expected HM30181 mesylate Type G after 9 days (see FIG. 36). […] This slurry was heated in an attempt to generate HM30181 mesylate Type G. A scaled-up slurry of HM30181 mesylate Type A starting material in DMF at 100° C. yielded HM30181 mesylate Type F after 2 days (see FIG. 37). A scaled-up slurry of HM30181 mesylate Type A starting material in DMF at 150° C. yielded a previously unobserved XRPD pattern after 5 days (see FIG. 37).
By 1H-NMR, HM30181 mesylate Type E contained DMA, HM30181 mesylate Type F contains DMF, and HM30181 mesylate Type N contains MeOH.
Proton NMR were obtained using a Varian 200M™ NMR in deuterated DMSO (DMSO-d6).

“Also recorded” adds a separate entry of the source.

Turning to `COc1cc2c(cc1OC)CN(CCc1ccc(-n3nnc(-c4cc(OC)c(OC)cc4NC(=O)c4cc(=O)c5ccccc5o4)n3)cc1)CC2.CS(=O)(=O)O` [HM30181 mesylate Type C, HM30181 mesylate], in series [1], the “Crystallinity / XRPD pattern after air-drying” value was “no significant change” and the “Crystallinity / XRPD pattern after vacuum-drying” value is on record as “no loss of crystallinity was detected; also recorded: No change in crystalline pattern”. Also, the “Disproportionation or degradation by 1H-NMR” value in series [2] is listed as “no disproportionation or degradation was detected”.

As for `COc1cc2c(cc1OC)CN(CCc1ccc(-n3nnc(-c4cc(OC)c(OC)cc4NC(=O)c4cc(=O)c5ccccc5o4)n3)cc1)CC2.CS(=O)(=O)O` [HM30181 mesylate Type D, HM30181 mesylate], the “Crystallinity / XRPD pattern after air-drying” value in series [1] is reported as “Some loss of crystallinity; also recorded: No change in crystalline pattern”. With `COc1cc2c(cc1OC)CN(CCc1ccc(-n3nnc(-c4cc(OC)c(OC)cc4NC(=O)c4cc(=O)c5ccccc5o4)n3)cc1)CC2.CS(=O)(=O)O` [HM30181 mesylate Type E, HM30181 mesylate], the “Crystallinity / XRPD pattern after vacuum-drying” value in series [1] is listed as “no loss of crystallinity; also recorded: No change in crystalline pattern”. For the same compound, the “Disproportionation or degradation by 1H-NMR” value in series [2] is reported as “no disproportionation or degradation was detected”. The matching figures for `COc1cc2c(cc1OC)CN(CCc1ccc(-n3nnc(-c4cc(OC)c(OC)cc4NC(=O)c4cc(=O)c5ccccc5o4)n3)cc1)CC2.CS(=O)(=O)O` [HM30181 mesylate Type F, HM30181 mesylate]: “Some change of pattern; also recorded: significant reduction in crystallinity” and “no disproportionation or degradation was detected”. Regarding `COc1cc2c(cc1OC)CN(CCc1ccc(-n3nnc(-c4cc(OC)c(OC)cc4NC(=O)c4cc(=O)c5ccccc5o4)n3)cc1)CC2.CS(=O)(=O)O` [HM30181 mesylate Type G, HM30181 mesylate], the “Crystallinity / XRPD pattern after air-drying” value in series [1] was “No reduction in crystallinity”.

On to `COc1cc2c(cc1OC)CN(CCc1ccc(-n3nnc(-c4cc(OC)c(OC)cc4NC(=O)c4cc(=O)c5ccccc5o4)n3)cc1)CC2.CS(=O)(=O)O` [HM30181 mesylate Type I, HM30181 mesylate], for which the “Crystallinity / XRPD pattern after air-drying” value was “yielded HM30181 mesylate Type J” in series [1] and “Type J on air-drying” in series [1] (listed as Type I). Turning to `COc1cc2c(cc1OC)CN(CCc1ccc(-n3nnc(-c4cc(OC)c(OC)cc4NC(=O)c4cc(=O)c5ccccc5o4)n3)cc1)CC2.CS(=O)(=O)O` [HM30181 mesylate Type N, HM30181 mesylate], in series [1], the “Crystallinity / XRPD pattern after vacuum-drying” value was “some loss of crystallinity”. For the same compound, the “Disproportionation or degradation by 1H-NMR” value in series [2] was “no disproportionation or degradation was detected”.
